Target: T1, Human M4 (Homo sapiens, UniProt P08173)
T1 construct: expressed in transfected cells; host or cells: CHO-K1 (ATCC), stably expressing hM4 and Gqi5
T1 sequence (P08173 1-479): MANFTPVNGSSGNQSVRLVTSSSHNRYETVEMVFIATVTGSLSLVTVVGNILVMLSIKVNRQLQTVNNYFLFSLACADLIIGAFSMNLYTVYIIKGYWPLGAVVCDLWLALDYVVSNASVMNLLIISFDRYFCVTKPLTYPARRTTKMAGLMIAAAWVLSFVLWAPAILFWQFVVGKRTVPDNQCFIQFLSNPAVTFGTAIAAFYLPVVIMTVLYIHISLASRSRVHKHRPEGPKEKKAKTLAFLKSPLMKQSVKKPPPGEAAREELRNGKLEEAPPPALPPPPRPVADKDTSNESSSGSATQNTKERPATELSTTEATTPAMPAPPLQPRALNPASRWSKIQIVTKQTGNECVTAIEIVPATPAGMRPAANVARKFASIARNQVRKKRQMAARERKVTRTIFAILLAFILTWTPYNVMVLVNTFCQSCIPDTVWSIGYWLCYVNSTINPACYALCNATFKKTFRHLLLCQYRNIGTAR
Experiment: mAChR M4 cell-based functional assay (calcium flux, potentiation of EC20 acetylcholine response) in hM4-Gqi5 CHO-K1 cells
Conditions: for Emax at 30 µM: % ACh maximum at 30 μM, human M4 CHO-K1 cells; for EC50: CHO-K1 cells transfected with human M4 and Gqi5, positive allosteric modulator activity, EC20 acetylcholine
Procedure: Human M4 cDNA, along with the chimeric G protein Gqi5, were transfected into Chinese hamster ovary (CHO-K1) cells purchased from the American Type Culture Collection using commercially available Lipofectamine 2000 transfection reagent (Dalby, B. et al., Methods (2004) 33(2), 95-103). hM4-Gqi5 cells were grown in Ham's F-12 medium containing 10% heat-inactivated fetal bovine serum (FBS), 20 mM HEPES, 50 μg/mL G418 sulfate (CAS #108321-42-2), and 500 μg/mL Hygromycin B. rM4-Gqi5 cells were grown in DMEM containing 10% heat-inactivated FBS, 20 mM HEPES, 400 μg/mL G418 sulfate, and 500 μg/mL Hygromycin B.
For high throughput measurement of agonist-evoked increases in intracellular calcium, CHO-K1 cells stably expressing muscarinic receptors were plated in growth medium lacking G418 sulfate and hygromycin at 15,000 cells/20 μL/well in Greiner 384-well black-walled, tissue culture (TC)-treated, clear-bottom plates (VWR). Cells were incubated overnight at 37° C. and 5% CO2. The next day, cells were washed using an ELX 405 (BioTek) with assay buffer; the final volume was then aspirated to 20 μL. Next, 20 μL of a 2.3 μM stock of Fluo-4/acetoxymethyl ester (Invitrogen, Carlsbad, CA), prepared as a 2.3 mM stock in DMSO and mixed in a 1:1 ratio with 10% (w/v) Pluronic F-127 and diluted in assay buffer, was added to the wells and the cell plates were incubated for 50 minutes at 37° C. and 5% CO2. Dye was removed by washing with the ELX 405 and the final volume was aspirated to 20 μL. Compound master plates were formatted in an 11 point concentration-response curve (CRC) format (1:3 dilutions) in 100% DMSO with a starting concentration of 10 mM using a BRAVO liquid handler (Agilent). Test compound CRCs were then transferred to daughter plates (240 nL) using the Echo acoustic plate reformatter (Labcyte, Sunnyvale, CA) and then diluted into assay buffer (40 μL) to a 2× stock using a Thermo Fisher Combi (Thermo Fisher Scientific, Waltham, MA).
Calcium flux was measured using the Functional Drug Screening System (FDSS) 6000 or 7000 (Hamamatsu Corporation, Tokyo, Japan) as an increase in the fluorescent static ratio. Compounds were applied to cells (20 μL, 2×) using the automated system of the FDSS at 2-4 seconds into the protocol and the data were collected at 1 Hz. […] Agonist activity was analyzed as a concentration-dependent increase in calcium mobilization upon compound addition. Positive allosteric modulator activity was analyzed as a concentration-dependent increase in the EC20 acetylcholine response. With the acetylcholine EC20 set as baseline, the test compound EC50 is determined as the concentration that produces an increase above baseline of 50% of the maximum increase in acetylcholine response elicted by the test compound. Antagonist activity was analyzed as a concentration-dependent decrease in the EC80 acetylcholine response. Concentration-response curves were generated using a four-parameter logistical equation in XLFit curve fitting software (IDBS, Bridgewater, NJ) for Excel (Microsoft, Redmond, WA) or Prism (GraphPad Software, Inc., San Diego, CA).
Compounds were synthesized as described above. Activity (EC50 and Emax) was determined in the mAChR M4 cell-based functional assay as described above and the data are shown in Table 5. The compound numbers correspond to the compound numbers used in Examples 1-13 and Tables 1, 2, and 3.

SMILES	Emax at 30 µM [%]	EC50 [nM]
Cc1csc2ncnc(N3CCc4ncc(C(F)(F)F)cc4C3)c12 [Compound 8, 5-methyl-4-[3-(trifluoromethyl)-7,8-dihydro-5H-1,6-naphthyridin-6-yl]thieno[2,3-d]pyrimidine]	78	30
Cc1csc2ncnc(N3CCc4ncc(Oc5ccccc5F)cc4C3)c12 [Compound 32, 4-[3-(2-fluorophenoxy)-7,8-dihydro-5H-1,6-naphthyridin-6-yl]-5-methyl-thieno[2,3-d]pyrimidine]	59	560
Cn1ncc2ncnc(N3CCc4ncc(C(F)(F)F)cc4C3)c21 [Compound 60, 6-(1-methylpyrazolo[4,3-d]pyrimidin-7-yl)-3-(trifluoromethyl)-7,8-dihydro-5H-1,6-naphthyridine]	31	6060
C[C@@H]1CN(c2cnc3c(c2)CN(c2nc(Cl)nc4c2COC4)CC3)CCO1 [Compound 65, (R)-2-chloro-4-(3-(2-methylmorpholino)-7,8-dihydro-1,6-naphthyridin-6(5H)-yl)-5,7-dihydrofuro[3,4-d]pyrimidine]	35	3260
FC(F)(F)c1cnc2c(c1)CN(c1nc(Cl)nc3c1COC3)CC2 [Compound 62, 2-chloro-4-[3-(trifluoromethyl)-7,8-dihydro-5H-1,6-naphthyridin-6-yl]-5,7-dihydrofuro[3,4-d]pyrimidine]	58	3290
FC(F)(F)c1cnc2c(c1)CN(c1nc(C3CC3)nc3c1CCC3)CC2 [Compound 58, 6-(2-cyclopropyl-6,7-dihydro-5H-cyclopenta[d]pyrimidin-4-yl)-3-(trifluoromethyl)-7,8-dihydro-5H-1,6-naphthyridine]	88	1480
Cc1csc2ncnc(N3CCc4ncc(N5CCOc6ncccc65)cc4C3)c12 [Compound 16, 1-[6-(5-methylthieno[2,3-d]pyrimidin-4-yl)-7,8-dihydro-5H-1,6-naphthyridin-3-yl]-2,3-dihydropyrido[2,3-b][1,4]oxazine]	91	60
Cn1ccc2c(N3CCc4ncc(C(F)(F)F)cc4C3)ncnc21 [Compound 61, 6-(7-methylpyrrolo[2,3-d]pyrimidin-4-yl)-3-(trifluoromethyl)-7,8-dihydro-5H-1,6-naphthyridine]	80	830
Cc1ccc(Oc2cnc3c(c2)CN(c2ncnc4scc(C)c24)CC3)c(F)c1 [Compound 19, 4-[3-(2-fluoro-4-methyl-phenoxy)-7,8-dihydro-5H-1,6-naphthyridin-6-yl]-5-methyl-thieno[2,3-d]pyrimidine]	58	1840
FC(F)(F)c1cnc2c(c1)CN(c1ncnc3scc(C4CC4)c13)CC2 [Compound 37, 5-cyclopropyl-4-[3-(trifluoromethyl)-7,8-dihydro-5H-1,6-naphthyridin-6-yl]thieno[2,3-d]pyrimidine]	22	1390
Fc1ccccc1Oc1cnc2c(c1)CN(c1nc(Cl)nc3c1COC3)CC2 [Compound 69, 2-chloro-4-(3-(2-fluorophenoxy)-7,8-dihydro-1,6-naphthyridin-6(5H)-yl)-5,7-dihydrofuro[3,4-d]pyrimidine]	42	990
Cc1cc2c(N3CCc4ncc(N5CCCn6nccc65)cc4C3)ncnc2s1 [Compound 2, 4-[3-(6,7-dihydro-5H-pyrazolo[1,5-a]pyrimidin-4-yl)-7,8-dihydro-5H-1,6-naphthyridin-6-yl]-6-methyl-thieno[2,3-d]pyrimidine]	106	30
Clc1nc2c(c(N3CCc4ncc(N5CCCn6nccc65)cc4C3)n1)COC2 [Compound 64, 2-chloro-4-(3-(6,7-dihydropyrazolo[1,5-a]pyrimidin-4(5H)-yl)-7,8-dihydro-1,6-naphthyridin-6(5H)-yl)-5,7-dihydrofuro[3,4-d]pyrimidine]	62	300

More lines, now with the values ahead:

Emax at 30 µM [%]	EC50 [nM]	SMILES
43	770	Cc1csc2c(N3CCc4ncc(-c5cnn(C6CC6)c5)cc4C3)ncnc12 [Compound 4, 4-[3-(1-cyclopropylpyrazol-4-yl)-7,8-dihydro-5H-1,6-naphthyridin-6-yl]-7-methyl-thieno[3,2-d]pyrimidine]
94	60	Cc1coc2ncnc(N3CCc4ncc(Nc5ccnn5C)cc4C3)c12 [Compound 55, 6-(5-methylfuro[2,3-d]pyrimidin-4-yl)-N-(2-methylpyrazol-3-yl)-7,8-dihydro-5H-1,6-naphthyridin-3-amine]
59	560	Cc1nn(C)cc1-c1cnc2c(c1)CN(c1ncnc3c(C)csc13)CC2 [Compound 23, 4-[3-(1,3-dimethylpyrazol-4-yl)-7,8-dihydro-5H-1,6-naphthyridin-6-yl]-7-methyl-thieno[3,2-d]pyrimidine]
75	370	Cc1noc2ncnc(N3CCc4ncc(-c5cnn(C6CC6)c5)cc4C3)c12 [Compound 46, 4-[3-(1-cyclopropylpyrazol-4-yl)-7,8-dihydro-5H-1,6-naphthyridin-6-yl]-3-methyl-isoxazolo[5,4-d]pyrimidine]
80	590	Cc1nn(C)cc1-c1cnc2c(c1)CN(c1ncnc3onc(C)c13)CC2 [Compound 43, 4-[3-(1,3-dimethylpyrazol-4-yl)-7,8-dihydro-5H-1,6-naphthyridin-6-yl]-3-methyl-isoxazolo[5,4-d]pyrimidine]
92	550	Cc1ncc(-c2cnc3c(c2)CN(c2ncnc4onc(C)c24)CC3)s1 [Compound 52, 3-methyl-4-[3-(2-methylthiazol-5-yl)-7,8-dihydro-5H-1,6-naphthyridin-6-yl]isoxazolo[5,4-d]pyrimidine]
95	120	Cc1nn(C)cc1-c1cnc2c(c1)CN(c1ncnc3occ(C)c13)CC2 [Compound 44, 4-[3-(1,3-dimethylpyrazol-4-yl)-7,8-dihydro-5H-1,6-naphthyridin-6-yl]-5-methyl-furo[2,3-d]pyrimidine]
22	1230	Cc1noc(C)c1-c1cnc2c(c1)CN(c1ncnc3sc(C(C)C)cc13)CC2 [Compound 35, 4-[6-(6-isopropylthieno[2,3-d]pyrimidin-4-yl)-7,8-dihydro-5H-1,6-naphthyridin-3-yl]-3,5-dimethyl-isoxazole]
74	230	Cc1cc2c(N3CCc4ncc(-c5cn(C)nc5C)cc4C3)ncnc2s1 [Compound 12, 4-[3-(1,3-dimethylpyrazol-4-yl)-7,8-dihydro-5H-1,6-naphthyridin-6-yl]-6-methyl-thieno[2,3-d]pyrimidine]
93	90	Cc1noc2ncnc(N3CCc4ncc(N5CCCn6nccc65)cc4C3)c12 [Compound 45, 4-[3-(6,7-dihydro-5H-pyrazolo[1,5-a]pyrimidin-4-yl)-7,8-dihydro-5H-1,6-naphthyridin-6-yl]-3-methyl-isoxazolo[5,4-d]pyrimidine]

Source: patent publication US20250017935A1, “7,8-DIHYDRO-5H-1,6-NAPHTHYRIDINE DERIVATIVES AS POSITIVE ALLOSTERIC MODULATORS OF THE MUSCARINIC ACETYLCHOLINE RECEPTOR M4 FOR TREATING NEUROLOGICAL AND PSYCHIATRIC DISORDERS” (Vanderbilt University, priority 2021, published 2025)
